Here are results for 19 compounds from ChEMBL document CHEMBL1129407, “Synthesis and evaluation of heterocyclic carboxamides as potential antipsychotic agents” (J Med Chem, 1996).

A value given as a limit tells only on which side of the number the result lay.

Assay [1] addresses T1, 5-hydroxytryptamine receptor 1A (Mus musculus, UniProt Q64264).
T1 sequence (Q64264 whole entry): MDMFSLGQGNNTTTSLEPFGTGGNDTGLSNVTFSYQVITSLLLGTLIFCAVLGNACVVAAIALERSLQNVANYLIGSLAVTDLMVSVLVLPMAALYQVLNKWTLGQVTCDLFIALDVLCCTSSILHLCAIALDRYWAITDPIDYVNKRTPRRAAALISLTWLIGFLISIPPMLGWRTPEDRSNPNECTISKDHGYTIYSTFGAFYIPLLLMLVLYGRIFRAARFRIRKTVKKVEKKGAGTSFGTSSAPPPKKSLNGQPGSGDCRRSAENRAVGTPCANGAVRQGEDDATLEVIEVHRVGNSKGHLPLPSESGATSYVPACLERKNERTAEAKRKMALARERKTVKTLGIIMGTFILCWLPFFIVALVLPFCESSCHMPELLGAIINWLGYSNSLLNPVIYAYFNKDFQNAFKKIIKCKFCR
In words: Inhibitory activity against serotonin 5-hydroxytryptamine 1A receptor from mice.

For assay [2], the target named is Serotonin 2 (5-HT2) receptor (Mus musculus, UniProt Q02152+P34968+P35363). Kind of assay: Inhibitory activity against serotonin 5-hydroxytryptamine 2 receptor from mice. It counts as protein assay.
Assay [3] deals with T2, D(2) dopamine receptor (Mus musculus, UniProt P61168). In words: Inhibitory activity against Dopamine receptor D2 from mice.
T2 sequence (P61168 whole entry): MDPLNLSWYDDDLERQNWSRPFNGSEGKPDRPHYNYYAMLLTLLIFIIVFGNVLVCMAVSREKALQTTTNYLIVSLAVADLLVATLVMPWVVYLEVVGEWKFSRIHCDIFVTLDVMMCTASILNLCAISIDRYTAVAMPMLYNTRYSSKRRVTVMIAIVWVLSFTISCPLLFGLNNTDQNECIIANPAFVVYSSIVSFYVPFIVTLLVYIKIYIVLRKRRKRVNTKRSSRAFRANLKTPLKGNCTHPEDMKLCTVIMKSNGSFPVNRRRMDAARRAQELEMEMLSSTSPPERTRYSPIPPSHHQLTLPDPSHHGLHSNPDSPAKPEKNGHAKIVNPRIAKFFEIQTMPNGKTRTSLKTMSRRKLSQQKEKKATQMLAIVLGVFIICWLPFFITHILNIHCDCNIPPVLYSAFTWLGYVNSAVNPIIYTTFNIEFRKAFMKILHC
Assay [4] concerns Mus musculus. In words: Compound was tested for antagonist activity against apomorphine-induced mouse climbing (ip). using in vivo method. It counts as functional.
Assay [5] concerns Mus musculus. Kind of assay: Compound was tested for antagonist activity against apomorphine-induced mouse climbing (po). using in vivo method. It counts as functional.
Assay [6] concerns the target T2, D(2) dopamine receptor. Kind of assay: Inhibition of mouse Dopamine receptor D2.
Assay [7] is filed under the species Mus musculus. Kind of assay: Compound was tested for induction of catalepsy in mouse. It counts as functional.
For assay [8], the system named is Mus musculus. Kind of assay: Compound was tested for antagonist activity against apomorphine-induced mouse stereotypy (po) using in vivo method. In kind it is functional.
A short description of assay [9]: Ratio of ED50 for induction of catalepsy to ED50 for antagonism of apomorphine-induced climbing. In kind it is functional.
Assay [10] is described as follows: Ratio of ED50 for antagonism of apomorphine induced stereotypy to ED50 for antagonism of apomorphine-induced climbing. In kind it is functional.
Assay [11] has as its system Mus musculus. In words: Compound was tested for antagonist activity against apomorphine-induced mouse climbing(intraperitoneally - ip). using in vivo method. It counts as functional.
In assay [12] the test system is Mus musculus. Kind of assay: Compound was tested for antagonist activity against apomorphine-induced mouse climbing(per orally - po). using in vivo method. In kind it is functional.
Assay [13] deals with Mus musculus. In words: Compound was tested for antagonist activity against apomorphine-induced mouse climbing (po) using in vivo method. It counts as functional.
For assay [14], the system named is Mus musculus. In words: Compound was tested for antagonist activity against apomorphine-induced mouse climbing (ip) using in vivo method. It counts as functional.
The test system of assay [15] is Mus musculus. In words: Compound was tested for antagonist activity against apomorphine-induced mouse stereotypy(per orally - po). using in vivo method. It counts as functional.
The species named for assay [16] is Mus musculus. Kind of assay: Compound was tested for induction of catalepsy in mouse. It counts as functional.

Usually IC50 stands for the concentration that inhibits the measured activity by half. Read a high IC50 as a need for much substance. The term ED50 denotes the dose at which the effect has come halfway, by size or by number of responders.

Consider `Nc1sccc1C(=O)NCCCCN1CCN(c2nsc3ccccc23)CC1`, for which the IC50 is 2 nM in assay [1], 2.3 nM in assay [2] and 11 nM against D(2) dopamine receptor [3]. Also, the results for the ED50 with Mus musculus [4] and in the assay with Mus musculus [5] were 4.8 mg/kg and more than 25 mg/kg, respectively.

In the case of `O=C(NCCCCN1CCN(c2nsc3ccccc23)CC1)c1cccc2cccnc12`, the IC50 was found to be 4.3 nM in assay [1], 2.4 nM in assay [2] and 14 nM against D(2) dopamine receptor [3]. Moreover, the figures for the ED50 in the assay with Mus musculus [4] and in the assay with Mus musculus [5] were less than 25 mg/kg and 54.4 mg/kg, respectively.

As for `O=C(NCCCCN1CCN(c2nsc3ccccc23)CC1)c1cccnc1`, the IC50 in [1] worked out at 4.9 nM; in [2], 2.9 nM; against D(2) dopamine receptor [6] it was 47 nM. Moreover, the values for the ED50 in the assay on Mus musculus [4] and in the assay with Mus musculus [5] were 5.2 mg/kg and 15.5 mg/kg, respectively.

For `Nc1cnccc1C(=O)NCCCCN1CCN(c2nsc3ccccc23)CC1`, the IC50 in assay [1] came to 7 nM; in assay [2], 1.5 nM.

With `Nc1ccsc1C(=O)NCCCCN1CCN(c2nsc3ccccc23)CC1`, the IC50 in [1] came to 1.3 nM; in assay [2], 1.3 nM; on D(2) dopamine receptor [6] it was 9.6 nM. The ED50 turned out to be 69.3 mg/kg in the assay listed under Mus musculus [7], 57.9 mg/kg with Mus musculus [8], 0.9 mg/kg in the assay with Mus musculus [4] and 9.7 mg/kg in the assay with Mus musculus [5]. Moreover, the Ratio came out at 7 in [9] and 6 in assay [10].

Take `Nc1cccnc1C(=O)NCCCCN1CCN(c2nsc3ccccc23)CC1`: the IC50 in assay [1] amounted to 3.8 nM; in assay [2], 8.3 nM.

Regarding `O=C(NCCCCN1CCN(c2nsc3ccccc23)CC1)c1ccccn1`, the IC50 is 2.8 nM in assay [1], 1.5 nM in assay [2] and 24 nM against D(2) dopamine receptor [6]. Besides, the values for the ED50 in the assay on Mus musculus [11] and with Mus musculus [12] were less than 25 mg/kg and 16.6 mg/kg, respectively.

As for `O=C(NCCCCN1CCN(c2nsc3ccccc23)CC1)c1cccc2c1NCC2`, the values for the IC50 (in [1]; in assay [2]; on D(2) dopamine receptor [6]) were 4.3 nM, 3.4 nM and 34 nM, respectively. The figures for the ED50 in the assay with Mus musculus [4] and in the assay with Mus musculus [5] were 2.6 mg/kg and 18.6 mg/kg, respectively.

Take `O=C(NCCCCN1CCN(c2nsc3ccccc23)CC1)c1[nH]nc2ccccc12`: the IC50 in [1] is 3.6 nM; in [2], 0.35 nM; at D(2) dopamine receptor [6] it was 2.2 nM. Also, the ED50 was less than 25 mg/kg in the assay on Mus musculus [4] and 31.8 mg/kg in the assay with Mus musculus [5].

In the case of `O=C(NCCCCN1CCN(c2nsc3ccccc23)CC1)c1ccncc1`, the results for the IC50 (in assay [1]; in assay [2]; against D(2) dopamine receptor [3]) were 6.6 nM, 2.3 nM and 25 nM, respectively. The ED50 in the assay with Mus musculus [13] was 34 mg/kg; in the assay on Mus musculus [14], 4.6 mg/kg.

In the case of `Nc1ccncc1C(=O)NCCCCN1CCN(c2nsc3ccccc23)CC1`, the IC50 is 5.1 nM in assay [1], 3.1 nM in assay [2] and 4.7 nM against D(2) dopamine receptor [3]. Also, the ED50 with Mus musculus [4] was more than 25 mg/kg.

Turning to `O=C(NCCCCN1CCN(c2nsc3ccccc23)CC1)c1cccc2c1NCCC2`, the IC50 in assay [1] came out at 1.9 nM; in [2], 2.4 nM; against D(2) dopamine receptor [6] it was 28 nM. Moreover, the ED50 in the assay with Mus musculus [4] is less than 25 mg/kg.

For `O=C(NCCCCN1CCN(c2nsc3ccccc23)CC1)c1cccc2[nH]cnc12`, the IC50 stood at 4.2 nM in assay [1], 0.29 nM in [2] and 7.6 nM at D(2) dopamine receptor [3]. In the assay on Mus musculus [4], this compound yielded an ED50 of more than 25 mg/kg.

With `Cc1nc2n(c(=O)c1CCN1CCC(c3noc4cc(F)ccc34)CC1)CCCC2` [RISPERIDONE], the IC50 was found to be 430 nM in [1] and 23 nM against D(2) dopamine receptor [6]. Also, the ED50 was determined as 3.2 mg/kg in the assay with Mus musculus [15], 1.4 mg/kg in the assay filed under Mus musculus [16], 0.3 mg/kg with Mus musculus [11] and 0.9 mg/kg in the assay with Mus musculus [12].

`Nc1ncccc1C(=O)NCCCCN1CCN(c2nsc3ccccc23)CC1`: the IC50 came out at 3.3 nM in [1], 1.5 nM in [2] and 7.8 nM at D(2) dopamine receptor [6]. Moreover, the 50% effective dose (ED50) in the assay on Mus musculus [4] was 6.4 mg/kg; in the assay with Mus musculus [5], 17.1 mg/kg.

With `O=C(NCCCCN1CCN(c2nsc3ccccc23)CC1)c1cccc2cc[nH]c12`, the half-inhibitory concentration (IC50) turned out to be 2.7 nM in assay [1], 1.2 nM in assay [2] and 28 nM on D(2) dopamine receptor [6].

With `Nc1cscc1C(=O)NCCCCN1CCN(c2nsc3ccccc23)CC1`, the IC50 in [1] is 3.5 nM; in [2], 2.5 nM; against D(2) dopamine receptor [6] it was 6 nM. In addition, the figures for the ED50 in the assay on Mus musculus [4] and in the assay with Mus musculus [5] were 1.7 mg/kg and 12.6 mg/kg, respectively.

Consider `O=C(NCCCCN1CCN(c2nsc3ccccc23)CC1)c1c[nH]c2ccccc12`, for which the IC50 amounted to 5.8 nM in assay [1], 1.3 nM in assay [2] and 14 nM at D(2) dopamine receptor [3]. The same compound registered an ED50 in the assay with Mus musculus [4] of more than 25 mg/kg.

As for `Nc1c(C(=O)NCCCCN2CCN(c3nsc4ccccc34)CC2)sc2ccccc12`, the IC50 stood at 5.8 nM in assay [1], 0.85 nM in [2] and 5.8 nM on D(2) dopamine receptor [6]. Moreover, the ED50 in the assay with Mus musculus [4] came to 2.2 mg/kg; in the assay on Mus musculus [5], 51.6 mg/kg.
